Results: US6599943B1, “Use of hydroxyguanidines” (WaPharm AB, priority 1996, dated 2003)
Counter-ions that a name gives are not always drawn.

Biological target: bovine milk xanthine oxidase (Bos taurus, UniProt P80457)
Experiment: Capacity to sustain oxidation of xanthine by xanthine oxidase in the absence of oxygen, spectrophotometric
Type: biochemical
Design: host or cells: bovine milk
Conditions: for V = 1000 × (Δabs 295 nm) min^−1 (initial rate of the support of the oxidation of xanthine): 50 μM hydroxyguanidine, 50 μM xanthine, 0.05 units/ml xanthine oxidase, anaerobic, pH 7.5, 20° C., blank subtracted
Procedure: Capacities of a series of hydroxyguanidine to sustain the oxidation of xanthine by xanthine oxidase in the absence of oxygen. The capacities of various hydroxyguanidines to sustain the oxidation of xanthine was assayed by using a spectrophotometric method. In this method bovine milk xanthine oxidase was injected to a Helma® sealable cuvette for anaerobic application thereby creating 1 ml of a reaction mixture that contained reagents as follows: 50 μM of a hydroxyguanidine, 50 μM xanthine, 0.05 units/ml bovine milk xanthine oxidase, 50 mM Tris and 1.5 mM EDTA; the pH of the reaction mixture being 7.5, and the temperature 20° C. Anaerobic conditions were assured by pre-gassing all solutions used for 5-10 min, with nitrogen. The rate of formation of uric acid was monitored spectrophotometrically by measuring the increase in absorbance at 295 nm (the absorption maximum for uric acid) at intervals. The relative capacities of the hydroxyguanidines to sustain oxidation of xanthine were estimated from the derivative of the initial linear phase of the curves. To obtain blank readings an equal volume of the solvent of the hydroxyguanidine (water) was added to the reaction mixture in separate experiments and the initial rate of absorbance change was substracted from the rate readings of the tested hydroxyguanidine.
Exemplary initial rates for the rate of the support of the oxidation of xanthine obtained by assaying the exemplary hydroxyguanidines listed above by the method in the present example are furthermore given in Table 2: […]

Sequence of bovine milk xanthine oxidase (P80457 whole entry): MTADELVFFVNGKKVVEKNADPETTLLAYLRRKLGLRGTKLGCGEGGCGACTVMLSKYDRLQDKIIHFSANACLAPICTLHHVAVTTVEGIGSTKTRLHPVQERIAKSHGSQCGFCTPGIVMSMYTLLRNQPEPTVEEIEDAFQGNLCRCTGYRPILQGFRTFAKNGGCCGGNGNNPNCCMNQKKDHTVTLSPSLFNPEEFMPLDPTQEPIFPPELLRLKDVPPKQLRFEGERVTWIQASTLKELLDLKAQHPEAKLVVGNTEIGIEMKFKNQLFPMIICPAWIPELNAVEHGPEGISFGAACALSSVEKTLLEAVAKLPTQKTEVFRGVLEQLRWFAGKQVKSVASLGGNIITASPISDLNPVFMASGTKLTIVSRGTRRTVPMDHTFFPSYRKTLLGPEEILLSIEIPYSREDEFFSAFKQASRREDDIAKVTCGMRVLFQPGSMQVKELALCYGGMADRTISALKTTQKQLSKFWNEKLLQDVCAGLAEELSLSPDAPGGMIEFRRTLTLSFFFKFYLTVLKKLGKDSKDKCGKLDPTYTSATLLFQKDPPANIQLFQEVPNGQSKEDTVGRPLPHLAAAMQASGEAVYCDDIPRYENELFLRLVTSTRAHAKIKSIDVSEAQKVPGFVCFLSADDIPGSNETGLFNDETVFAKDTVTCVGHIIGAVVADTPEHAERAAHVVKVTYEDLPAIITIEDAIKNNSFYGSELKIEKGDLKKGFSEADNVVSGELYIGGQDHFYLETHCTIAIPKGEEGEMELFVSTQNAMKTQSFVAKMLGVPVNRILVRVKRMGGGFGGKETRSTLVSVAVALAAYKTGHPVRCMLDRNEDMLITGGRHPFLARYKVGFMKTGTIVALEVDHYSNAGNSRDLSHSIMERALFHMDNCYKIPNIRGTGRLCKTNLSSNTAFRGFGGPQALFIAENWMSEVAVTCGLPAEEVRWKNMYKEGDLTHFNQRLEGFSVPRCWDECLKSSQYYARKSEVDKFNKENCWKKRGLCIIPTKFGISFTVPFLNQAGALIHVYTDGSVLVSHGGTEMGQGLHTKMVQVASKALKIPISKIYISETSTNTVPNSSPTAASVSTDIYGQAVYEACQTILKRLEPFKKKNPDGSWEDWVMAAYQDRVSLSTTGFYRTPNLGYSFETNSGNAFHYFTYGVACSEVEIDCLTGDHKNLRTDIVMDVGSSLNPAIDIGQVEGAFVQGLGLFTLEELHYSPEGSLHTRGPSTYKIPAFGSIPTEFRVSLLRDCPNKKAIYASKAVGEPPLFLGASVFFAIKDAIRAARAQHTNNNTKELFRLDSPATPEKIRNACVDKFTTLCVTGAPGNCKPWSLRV

V = 1000 × (Δabs 295 nm) min^−1 (initial rate of the support of the oxidation of xanthine)	activity / capacity to undergo reduction (reaction A), in words (as disclosed in Example 7)	Compound
3 1000 × (Δabs 295 nm) min^−1		N=C(NO)N/N=C/C1CCCCC1 [LT10, reference compound]
59.7 1000 × (Δabs 295 nm) min^−1		COc1ccc(/C=N/NC(=N)NO)c(Cl)c1O [DWO5, reference compound]
5 1000 × (Δabs 295 nm) min^−1		N=C(NO)N/N=C/c1cc[n+](O)cc1 [PR19, N-(N-Oxypyridyl-4-methyleneamino)-N′-hydroxyguanidine tosylate]
1 1000 × (Δabs 295 nm) min^−1		N=C(NO)NN=C(c1ccccc1)c1ccccc1 [PR2, N-(Diphenylmethyleneamino)-N′-Hydroxyguanidine Bromide]
12 1000 × (Δabs 295 nm) min^−1		COc1ccc(/C(C)=N/NC(=N)NO)cc1OC [PR11, 3,4-Dimethoxyacetophenone-N-hydroxyguanyl-hydrazone tosylate]
4 1000 × (Δabs 295 nm) min^−1		ONc1ncn[nH]1 [PR6, 3-Hydroxyimino-1,2,4-triazole tosylate]
63 1000 × (Δabs 295 nm) min^−1		N=C(NO)N/N=C/c1ccc(/C=N/NC(=N)NO)cc1 [PR1, 1,4-Bis(N-Hydroxyguanidinoiminomethyl)Benzene Bromide]
11 1000 × (Δabs 295 nm) min^−1		N=C(NO)NN=Cc1ccc(C(F)(F)F)cc1 [EN12, N-(4-Trifluoromethylbenzylideneamino)-N′-hydroxyguanidine tosylate]
12 1000 × (Δabs 295 nm) min^−1		CCCCCCOc1cccc(/C=N/NC(=N)NO)c1 [LT7, reference compound]
29.4 1000 × (Δabs 295 nm) min^−1	moderate capacity	COc1ccc(/C=N/NC(=N)NO)c(OC)c1 [DWO3, reference compound]
14 1000 × (Δabs 295 nm) min^−1		N-(3- Chloro-5-trifuluoromethylpyridyl-2-methyleneamino)-N′-hydroxyguanidine tosylate [PR14]
5 1000 × (Δabs 295 nm) min^−1		Cc1cc2oc(/C=N/NC(=N)NO)cc(=O)c2cc1Cl [EN18, N-(6-Chloro-7-methyl-4oxo-4H-1-benzopyran-3-methyleneamino)-N′-hydroxyguanidine tosylate]
−2 1000 × (Δabs 295 nm) min^−1		N=C(NO)NN=CCOc1c(Cl)cccc1Cl [PR17, N-(2,6-Dichlorophenoxyethylideneamino)-N′-hydroxyguanidine bromide]
55 1000 × (Δabs 295 nm) min^−1		N=C(NO)N/N=C/c1ccc2c(c1)OCCO2 [LW04, reference compound]
−1 1000 × (Δabs 295 nm) min^−1		CC(C)CC=NNC(=N)NO [PR10, N-(3-Methylbutylideneamino)-N′-hydroxyguanidine tosylate]
7 1000 × (Δabs 295 nm) min^−1		N=C(NO)N/N=C/c1cccn1-c1ccc(Cl)cc1 [PR15, N-[1-(4-Chlorophenyl)-pyrrolyl-2-methyleneamino(]-N′-hydroxyguanidine tosylate]
36.7 1000 × (Δabs 295 nm) min^−1		COc1ccc(/C=N/NC(=N)NO)cc1O [DWO4, reference compound]

V = 1000 × (Δabs 295 nm) min^−1 (initial rate of the support of the oxidation of xanthine)	activity / capacity to undergo reduction (reaction A), in words (as disclosed in Example 7)	Compound
13 1000 × (Δabs 295 nm) min^−1		N=C(NO)N/N=C/c1nccs1 [PR16, N-(Thiazolyl-2-methyleneamino)-N′-hydroxyguanidine tosylate]
40 1000 × (Δabs 295 nm) min^−1		COc1ccc(/C=N/NC(=N)NO)cc1OC [DWO1, reference compound]
13 1000 × (Δabs 295 nm) min^−1		Cc1nn(C)c(Cl)c1/C=N/NC(=N)NO [PR20, N-(5-Chloro-1,3-dimethylpyrazolyl-4-methyleneamino)-N′-hydroxyguanidine tosylate]
66 1000 × (Δabs 295 nm) min^−1		N=C(NO)N/N=C\C=C/c1ccccc1 [EN16, N-(3-Phenylpropenyleneamino)-N′-hydroxyguanidine tosylate]
3 1000 × (Δabs 295 nm) min^−1		N=C(NO)NN=CCc1ccccc1 [PR13, N-(Phenylethylideneamino)-N′-hydroxyguanidine tosylate]
44 1000 × (Δabs 295 nm) min^−1		CC(=C/c1ccccc1)/C=N/NC(=N)NO [EN20]
22 1000 × (Δabs 295 nm) min^−1		COc1ccc(C=NNC(=N)NO)cc1Br [EN10, N-(3-Bromo-4-methoxybenzylideneamino)-N′-hydroxyguanidine tosylate]
30.7 1000 × (Δabs 295 nm) min^−1		COc1ccc(/C=N/NC(=N)NO)c(OC)c1C [DWO2, reference compound]
11 1000 × (Δabs 295 nm) min^−1		N=C(NO)NN=Cc1ccco1 [PR12, N-(Furyl-2-methyleneamino)-N′-hydroxyguanidine tosylate]
45.4 1000 × (Δabs 295 nm) min^−1		COc1cc(/C=N/NC(=N)NO)c([N+](=O)[O-])cc1OC [DWO8, reference compound]
50 1000 × (Δabs 295 nm) min^−1		N=C(NO)N/N=C1\C(=O)Nc2ccc(F)cc21 [LT5, reference compound]
1.4 1000 × (Δabs 295 nm) min^−1		N=C(NN)NO [Aminohydroxyguanidine, 1-amino-3-hydroxyguanidine, reference compound]
26 1000 × (Δabs 295 nm) min^−1		COc1cccc(/C=N/NC(=N)NO)c1 [LT11, reference compound]
7 1000 × (Δabs 295 nm) min^−1		N=C(NO)NN=C1CCCCC1 [PR4, N-(Cyclohexylideneamino)-N′-Hydroxyguanidine Tosylate]
43 1000 × (Δabs 295 nm) min^−1		Cc1c(/C=N/NC(=N)NO)sc2ccccc12 [PR18, N-(3-Methylbenzo[b]thienyl-2-methyleneamino)-N'-hydroxyguanidine tosylate]
0 1000 × (Δabs 295 nm) min^−1		N=C(NO)N/N=C/c1c2ccccc2c(Cl)c2ccccc12 [LW01, reference compound]
30.7 1000 × (Δabs 295 nm) min^−1		COc1cc(Br)c(/C=N/NC(=N)NO)cc1OC [DWO6, reference compound]

Compound	V = 1000 × (Δabs 295 nm) min^−1 (initial rate of the support of the oxidation of xanthine)	activity / capacity to undergo reduction (reaction A), in words (as disclosed in Example 7)
N=C(NO)N/N=C/c1cccc(/C=N/NC(=N)NO)c1 [PR8, 1,3-Bis(N-hydroxyguanidinoiminomethyl)benzene tosylate chloride]	29 1000 × (Δabs 295 nm) min^−1	
N=C(N)NO [Hydroxyguanidine, N-hydroxyguanidine]	0.7 1000 × (Δabs 295 nm) min^−1	
